Broadly, the logD is the decadic logarithm of the distribution of all forms, ionised or not, between an organic phase and buffer at a given pH. A word on the Ki: it is the equilibrium dissociation constant of an inhibitor or competing ligand from its target.

Data set [1] can be described thus: Distribution coefficient, log D of the compound at pH 7.4. It counts as physicochemical. The conditions noted are these: octanol/water.
The target of data set [2] is T1, Histamine H4 receptor (Homo sapiens, UniProt Q9H3N8). The experiment in a line: Displacement of [3H]histamine from human histamine H4 receptor expressed in CHO cells after 90 mins by scintillation counting technique. It counts as cell-based. (In general: Loss of bound radioactivity is the signal in a displacement assay; it reports binding, not function.)
T1 sequence (Q9H3N8 whole entry): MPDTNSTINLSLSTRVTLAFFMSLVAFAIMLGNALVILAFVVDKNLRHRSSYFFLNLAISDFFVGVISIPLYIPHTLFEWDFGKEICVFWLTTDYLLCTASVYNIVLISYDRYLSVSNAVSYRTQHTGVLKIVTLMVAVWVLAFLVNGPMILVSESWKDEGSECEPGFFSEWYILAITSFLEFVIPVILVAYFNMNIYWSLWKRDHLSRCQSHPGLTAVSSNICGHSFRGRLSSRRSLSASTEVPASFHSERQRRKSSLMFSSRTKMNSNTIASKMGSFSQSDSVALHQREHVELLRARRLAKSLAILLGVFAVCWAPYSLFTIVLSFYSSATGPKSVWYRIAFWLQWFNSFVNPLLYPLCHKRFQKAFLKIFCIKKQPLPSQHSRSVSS
The target in data set [3] is T1, Histamine H4 receptor. The experiment in a line: Antagonist activity at human histamine H4 receptor by functional assay.
Data set [4] addresses T1, Histamine H4 receptor. Put plainly: Antagonist activity at human histamine H4 receptor at 15 uM by functional assay. The arrangement: scale not given: the % may be the effect or the level left.
Data set [5] addresses T2, Histamine H3 receptor (Homo sapiens, UniProt Q9Y5N1). Put plainly: Antagonist activity at histamine H3 receptor. The format is functional.
Data set [6] concerns the target T2, Histamine H3 receptor. The experiment in a line: Binding affinity to histamine H3 receptor.
A further data set deals with Histamine H1 receptor (Homo sapiens, UniProt P35367). Put plainly: Antagonist activity at histamine H1 receptor. The format is functional.
Chain of Histamine H1 receptor (P35367 whole entry): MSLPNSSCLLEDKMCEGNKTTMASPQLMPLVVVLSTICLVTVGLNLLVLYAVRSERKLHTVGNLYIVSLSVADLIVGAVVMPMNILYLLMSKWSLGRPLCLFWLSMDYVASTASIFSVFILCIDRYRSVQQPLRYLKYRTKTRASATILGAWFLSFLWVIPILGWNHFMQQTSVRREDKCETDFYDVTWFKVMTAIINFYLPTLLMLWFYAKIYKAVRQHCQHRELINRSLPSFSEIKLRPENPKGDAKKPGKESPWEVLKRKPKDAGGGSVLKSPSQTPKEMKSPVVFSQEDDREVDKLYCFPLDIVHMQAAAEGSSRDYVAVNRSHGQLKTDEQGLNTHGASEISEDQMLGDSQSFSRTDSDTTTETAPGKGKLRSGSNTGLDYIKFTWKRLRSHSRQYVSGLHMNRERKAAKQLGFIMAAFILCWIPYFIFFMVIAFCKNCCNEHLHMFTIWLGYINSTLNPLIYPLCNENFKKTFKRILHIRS
For another data set, the target named is Histamine H2 receptor (Homo sapiens, UniProt P25021). Put plainly: Antagonist activity at histamine H2 receptor. The format is functional.
Chain of Histamine H2 receptor (P25021 whole entry): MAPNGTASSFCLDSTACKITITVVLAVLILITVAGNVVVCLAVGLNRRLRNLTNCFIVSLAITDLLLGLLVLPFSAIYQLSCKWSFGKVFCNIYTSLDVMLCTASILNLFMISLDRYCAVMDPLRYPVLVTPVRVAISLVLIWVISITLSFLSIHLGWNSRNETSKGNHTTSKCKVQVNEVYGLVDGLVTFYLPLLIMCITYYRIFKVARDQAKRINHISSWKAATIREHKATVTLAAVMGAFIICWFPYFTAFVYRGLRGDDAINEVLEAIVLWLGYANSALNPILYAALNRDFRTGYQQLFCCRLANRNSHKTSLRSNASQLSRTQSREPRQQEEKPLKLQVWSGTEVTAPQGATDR
Data set [7] can be described thus: Metabolic stability in rat liver microsomes. The following applies: read-out: Stability. The format is ADME, Microsome. In general terms: Liver microsomes are a subcellular fraction often used to study metabolism.
The nature of data set [8]: Metabolic stability in human liver microsomes. The format is ADME, Microsome. The conditions noted are these: read-out: Stability.
For another data set, the system named is Liver microsomes. The experiment in a line: Intrinsic clearance in rat liver microsomes. The format is ADME, Microsome.
Data set [9] addresses T2, Histamine H3 receptor. The experiment in a line: Binding affinity to human histamine H3 receptor.

Bounds are passed on as bounds.

T2 sequence (Q9Y5N1 whole entry): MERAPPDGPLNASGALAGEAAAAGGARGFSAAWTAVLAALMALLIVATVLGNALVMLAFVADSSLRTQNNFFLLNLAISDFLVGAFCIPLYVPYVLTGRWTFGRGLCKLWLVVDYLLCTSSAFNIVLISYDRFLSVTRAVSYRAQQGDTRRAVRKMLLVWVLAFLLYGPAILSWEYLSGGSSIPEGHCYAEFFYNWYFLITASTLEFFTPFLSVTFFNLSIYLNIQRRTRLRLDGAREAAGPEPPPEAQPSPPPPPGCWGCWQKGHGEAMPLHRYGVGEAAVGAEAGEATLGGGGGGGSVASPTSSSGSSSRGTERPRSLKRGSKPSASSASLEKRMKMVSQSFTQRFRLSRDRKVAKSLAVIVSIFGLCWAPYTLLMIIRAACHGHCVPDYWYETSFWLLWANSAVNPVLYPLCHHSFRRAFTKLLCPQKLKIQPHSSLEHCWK

`CC(C)(C)CCNc1cc(N2CCNCC2)ncn1` gave a logD in data set [1] of 1.4.
At Histamine H4 receptor [2] (cho), `CC(C)(C)CCNc1cc(N[C@H]2CCN(Cc3cccc(F)c3O)C2)ncn1` yielded a Ki of 20000 nM.
As for `COc1ccccc1Cn1ccc(NCCc2cnc[nH]2)nc1=O`, the Ki at Histamine H4 receptor [3] was above 2000 nM; on Histamine H4 receptor [2], 1600 nM. This compound also had an Activity on Histamine H4 receptor [4] of 65%.
Turning to `COc1cccc(C(O)(COc2ccccc2C)CN2CCN(C)CC2)c1` (stereo not given), the Ki on Histamine H3 receptor [5] was 2500 nM; at Histamine H4 receptor [3], above 2000 nM; at Histamine H4 receptor [2], 3240 nM. On Histamine H4 receptor [4], the Activity came to 60%.
On to `CN1CCN(c2cc(NCCC(C)(C)C)ncn2)CC1`, for which the inhibitory constant (Ki) is 646 nM at Histamine H3 receptor [6], above 10000 nM at Histamine H1 receptor, 3560 nM on Histamine H2 receptor and 37 nM at Histamine H4 receptor [3]. Moreover, the microsomal CLint in data set [7] came out at 147 µL/min/mg; in data set [8], 16 µL/min/mg. Besides, the log distribution coefficient (logD) in [1] was 2.6.
Take `CN1CCCN(c2cc(NCC(C)(C)C)ncn2)CC1`: the logD in data set [1] worked out at 0.96.
`CC(C)(C)CCNc1cc(NC2CCN(Cc3ccc(CO)o3)C2)ncn1` (stereo not given): the affinity on Histamine H4 receptor [2], expressed as Ki, was 2110 nM. The compound further returned an Activity at Histamine H4 receptor [4] of 73%.
For the compound `CN1CCN(c2cnc3ccccc3n2)CC1`, affinity at Histamine H4 receptor [2] was put at a Ki of 1060 nM. Also, the logD in data set [1] came to 1.76.
Regarding `CC(C)(C)CCNc1cc(N[C@@H]2CCNC2)ncn1`, the inhibitory constant (Ki) at Histamine H3 receptor [5] was found to be 13600 nM.
Compound `CN(C)CCNc1cc(NCC2CC2)ncn1` displayed a CL with Liver microsomes of 143 µL/min.
In the case of `COCc1ccc(CN2CC[C@H](Nc3cc(NCCC(C)(C)C)ncn3)C2)o1`, the inhibitory constant (Ki) at Histamine H4 receptor [2] (cho) is 20000 nM.
Compound `Cc1ccc(C#N)c(N2CC3CN(C)CC3C2)n1` (stereo not given) yielded a Ki at Histamine H4 receptor [2] of 930 nM. The logD in data set [1] is -0.86.
`CN1CCN(c2cc(NCC(C)(C)C)ncn2)CC1` had an inhibition constant Ki on Histamine H3 receptor [9] of 825 nM. In data set [1], the logD is 1.75.
For the compound `CN1CCN(c2cc(NC3Cc4ccccc4C3)ncn2)CC1`, the affinity at Histamine H4 receptor [2], expressed as Ki, was 212 nM.
As to `CN1CCN(c2cc(N3[C@@H]4CCC[C@@H]3C4)ncn2)CC1`, the Ki on Histamine H4 receptor [2] worked out at 860 nM.
As to `CC(C)(C)CCNc1cc(N[C@H]2CCNC2)ncn1`, the Ki on Histamine H1 receptor was above 40000 nM; on Histamine H2 receptor, 8820 nM; at Histamine H3 receptor [5], 8220 nM; at Histamine H4 receptor [3], 572 nM. Also, the logD in data set [1] was found to be 0.6.
The compound `CN1CC[C@H](Nc2cc(NCCC(C)(C)C)ncn2)C1` showed a Ki on Histamine H4 receptor [2] of 593 nM.
The same measure, in the same setting: then `CN1CCN(c2cc(NCc3ccccc3)ncn2)CC1`, with 207 nM.
`CN1CCN(C(=O)c2nc3cc(Cl)ccc3[nH]2)CC1`: the inhibitory constant (Ki) turned out to be 39.6 nM at Histamine H4 receptor [3] and 47.7 nM at Histamine H4 receptor [2].
For the compound `CC(C)(C)CCNc1cc(N2CCN(C3CCCCC3)CC2)ncn1`, the inhibition constant (Ki) on Histamine H4 receptor [2] stood at 601 nM. Also, the logD in data set [1] was determined as 3.84.
Consider `CN(C)[C@@H]1CCN(c2cc(NCC(C)(C)C)ncn2)C1`, for which, at Histamine H3 receptor [9], the Ki was determined as 54 nM. Moreover, the logD in data set [1] turned out to be 1.09.
With `CN1CCN(c2cc(C(=O)NCc3cccc(C(F)(F)F)c3)ncn2)CC1`, on Histamine H4 receptor [2], the affinity, expressed as Ki, was 34900 nM. The same compound gave an Activity at Histamine H4 receptor [4] of 57%.

The values are drawn from ChEMBL document CHEMBL1914410, “Discovery of a series of potent and selective human H4 antagonists using ligand efficiency and libraries to explore structure-activity relationship (SAR)” (Bioorg Med Chem Lett, 2011).
